Key:
[1] = biological target: human recombinant FGFR3 catalytic structural domain protein (Homo sapiens (Human), UniProt P22607); assay: FGFR3 activity inhibition test (HTRF kinase assay); type: biochemical; conditions: 90 μM ATP
Protocol: FGFR3 Activity Inhibition Test
The influence of the compound according to the present invention on the activity of fibroblast growth factor receptor 3 (FGFR3) was evaluated by an in vitro kinase assay experiment.
(§1) The experimental method is summarized as follows:
The in vitro activity of FGFR3 was determined by assaying the phosphorylation level of the substrate in the kinase reaction, by means of an HTRF kinase assay kit. The reaction buffer comprised the following components: 5-fold diluted Enzymatic buffer/kinase 5× (Cisbio, Catalog number 62EZBFDD) (main ingredient: 50 mM HEPES, pH 7.0), 5 mM MgCl2, 1 mM DTT; the human recombinant FGFR3 catalytic structural domain protein (amino acids 399-806) was commercially available from Sino Biological Inc., diluted with the reaction buffer to a 0.3 ng/μL kinase solution; the substrate reaction solution comprised a biotin labeled tyrosine kinase substrate diluted with the reaction buffer to 1000 nM (Cisbio, catalog number 62TK0PEC), and 90 μM ATP, and the assay solution comprised an Eu^3+ labeled cage-shaped antibody (Cisbio, Catalog number 61T66KLB) diluted with the assay buffer (Cisbio, Catalog number 62SDBRDF) to 0.125 ng/μL, and 62.5 nM streptavidin labeled XL665 (Cisbio, Catalog number 610SAXLB).
The compound was dissolved and diluted in 100% DMSO to 100 μM, then 4-fold-series diluted with DMSO to a minimum concentration of 0.0061 μM, and each concentration point was then 40-fold diluted with the reaction buffer. If the IC50 value of the compound was very low, the initial concentration of the compound could be reduced.
4 μL of a compound solution and 2 μL of an FGFR3 kinase solution were added into a 384 well assay plate (Thermo, Catalog number 264706), mixed uniformly and then incubated for 15 min at room temperature; subsequently, 4 μL of the substrate reaction solution was added therein, and the reaction mixture was incubated for 60 min at room temperature; and then 10 μL of an assay solution of an equal volume to the reaction was added therein and mixed uniformly, followed by placement at room temperature. After 60 min, the enzyme reaction was terminated by EDTA in the assay solution, and the phosphorylated products were identified by both the Eu^3+ labeled cage-shaped antibody (donor) and the streptavidin labeled XL665 antibody (receptor) at the same time. After the excitation with laser, the donors and receptors that were close to each other experienced energy resonance transfer, and the energy transferred from the donor (620 nm) to the receptor (665 nm) could be detected with Envision. The ratio of 665/620 is in positive correlation to the phosphorylation degree of the substrate, thereby to detect the FGFR3 kinase activity. […] The inhibition percentage of the compound against […] activity could be calculated with the following formula: Inhibition percentage=100−100*(signalcompound−signalnegative control)/(signalpositive control−signalnegative control)
The IC50 value of the compound was calculated by the following formula, from 10 concentration points, with XLfit (ID Business Solutions Ltd., UK): Y=Bottom+(Top−Bottom)/(1+10^((Log IC50−X)*slope factor)) Where, Y is the inhibition percentage, Bottom is the bottom plateau of the curve (the bottom plateau of the S-type curve), Top is the top plateau of the curve (the top plateau of the S-type curve), and X is the log value of the compound concentration to be measured.

Hep3B cells = assay: Hep3B cell proliferation inhibition test (CellTiter-Glo); type: cell-based; conditions: Homo sapiens, 72 h, CTG
Protocol: Hep3B Cell Proliferation Inhibition Test
The influence of the compound according to the present invention on Hep3B cell proliferation was evaluated by a luminescence cell viability test.
as §1
A CellTilter-Glo (CTG) assay kit was used to detect an indicator ATP of active cellular metabolism by means of a unique stable luciferase, and the luminous signal produced in the test was in direct proportion to the count of active cells in the medium, thereby to detect the cell proliferation of Hep3B.
A CellTilter-Glo agent (Promega, G7572) was comprised of a CellTilter-Glo lyophilized powder and a CellTilter-Glo buffer, and the lyophilized powder was dissolved into the buffer in use.
Hep3B cells (ATCC, HB-8064) (cell source: Shanghai Academy of Life Sciences, Chinese Academy of Sciences) were cultured in a DMEM complete medium (Thermofisher, 11995073) containing a 10% FBS (GBICO, 10099-141) and 100 units/ml mycillin mixed solution (Thermofisher, 15140122). When the cells coverage reached 80-90% in the culture vessel, after the cells were digested and blown about with 0.25% pancreatin (containing EDTA) (Thermofisher, 25200056), they were planted in a white 384 well plate (Thermofisher, 164610), with 1000 cells in each well (27 μl of a DMEM complete medium), and then the 384 well plate was placed into an incubator at 37° C. and 5% CO2 and cultured overnight (18-20 h). The compound was dissolved and diluted in 100% DMSO to 100 μM, then 4-fold-series diluted with DMSO to a minimum concentration of 0.0061 μM, and each concentration point was 50-fold diluted with the FBS-free DMEM medium. If the IC50 value of the compound was very low, the initial concentration of the compound could be reduced. […] This 384 well plate was placed into an incubator at 37° C. and 5% CO2 for further culture, taken out after 72 h, and stood at room temperature for 30 min. The CTG agent was also taken out and balanced to room temperature. 15 μl of the CTG agent was added into each well, and placed onto a shaker to be gently shaken for 3 min to ensure sufficient cell lysis. After 10 min of standing to allow the luminescence signal to be stable, the luminescence signal was read with EnVision (Perkin Elmer).
The inhibition percentage of the compound against Hep3B cell proliferation could be calculated with the following formula: Inhibition percentage=100−100*(signalcompound−signalnegative control)/(signalpositive control−signalnegative control)
The IC50 value of the compound was calculated by the following formula, from 8 concentration points, with XLfit (ID Business Solutions Ltd., UK): Y=Bottom+(Top−Bottom)/(1+10^((Log IC50−X)*slope factor))
Where, Y is the inhibition percentage, Bottom is the bottom plateau of the curve (the bottom plateau of the S-type curve), Top is the top plateau of the curve (the top plateau of the S-type curve), and X is the log value of the compound concentration to be measured.

Chain of human recombinant FGFR3 catalytic structural domain protein (P22607 399-806): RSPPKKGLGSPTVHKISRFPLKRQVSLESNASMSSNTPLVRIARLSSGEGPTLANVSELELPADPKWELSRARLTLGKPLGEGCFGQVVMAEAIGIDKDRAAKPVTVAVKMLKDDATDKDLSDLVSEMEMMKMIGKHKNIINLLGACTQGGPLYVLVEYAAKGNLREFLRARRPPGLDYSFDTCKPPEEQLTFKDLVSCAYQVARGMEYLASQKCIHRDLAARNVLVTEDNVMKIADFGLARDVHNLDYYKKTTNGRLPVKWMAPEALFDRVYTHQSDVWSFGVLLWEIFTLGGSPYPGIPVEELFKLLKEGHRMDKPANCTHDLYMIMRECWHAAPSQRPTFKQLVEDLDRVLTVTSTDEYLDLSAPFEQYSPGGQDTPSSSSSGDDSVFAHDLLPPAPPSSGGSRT

IC50 [1]: > 1000 nM | IC50 (Hep3B cells): < 50 nM
Structure (SMILES): COC[C@@H](C)Oc1cc(NC(=O)N(C)c2ccc(CN3CCOCC3=O)c(C=O)n2)ncc1C#N [Compound 14, (R)-3-(5-cyano-4-((1-methoxyprop-2-yl)oxo)pyrid-2-yl)-1-(6-formyl-5-((3-carbonylmorpholino)methyl)pyrid-2-yl)-1-methylurea]

Source: US10590109B2, “Heterocyclic compounds used as FGFR inhibitors” (Nanjing InnoCare Pharma Tech Co., Ltd., priority 2016, dated 2020)
